Series [1] is described as follows: Cytotoxicity against human HepG2 cells assessed as growth inhibition by XTT assay. It is filed as toxicity, cell-based.
Series [2] deals with [Candida] auris. The experiment in a line: Antifungal activity against Candida auris ATCC 6258 assessed as lowest compound concentration required to inhibit 50 % growth. The class given is functional, Candidozyma auris.
For series [3], the system named is [Candida] auris. Briefly: Antifungal activity against Candida auris ATCC 6258 assessed as lowest compound concentration required to inhibit 90 % growth. The class given is functional, Candidozyma auris.
Series [4] concerns [Candida] auris. Briefly: Antifungal activity against Candida auris CDC0385 assessed as lowest compound concentration required to inhibit 50 % growth. It is filed as functional, Candidozyma auris.
Series [5] has as its system [Candida] auris. Briefly: Antifungal activity against Candida auris CDC0381 assessed as lowest compound concentration required to inhibit 50 % growth. The class given is functional, Candidozyma auris.
The subject of series [6] is [Candida] auris. Briefly: Antifungal activity against Candida auris CDC0385 assessed as growth inhibition. It is filed as functional, organism-based. The following applies: Candidozyma auris.
Series [7] has as its system [Candida] auris. Briefly: Antifungal activity against Candida auris CDC0385 assessed as lowest compound concentration required to inhibit 90 % growth. It is filed as functional, Candidozyma auris.
In series [8] the test system is [Candida] auris. Briefly: Antifungal activity against Candida auris ATCC 6258 assessed as growth inhibition. The note with it: Candidozyma auris. The class given is functional, organism-based.
Series [9] deals with [Candida] auris. Briefly: Antifungal activity against Candida auris CDC0381 assessed as lowest compound concentration required to inhibit 90 % growth. It is filed as functional, Candidozyma auris.
Series [10] can be described thus: Selectivity index, ratio of IC50 for cytotoxicity against human HepG2 cells to IC50 for antifungal activity against Candida auris CDC0385. The class given is toxicity, cell-based. The note with it: read-out: Ratio IC50.
Series [11] deals with [Candida] auris. Briefly: Antifungal activity against Candida auris CDC0381 assessed as growth inhibition. The class given is functional, organism-based. The following applies: Candidozyma auris.

The source of these data is ChEMBL document CHEMBL5223186, “Agrochemical Lessons for Infectious Disease Research: New Resistance Breaking Antifungal Hits against Candida auris” (ACS Med Chem Lett, 2023).

≈ marks a conversion by molar mass, not a printed value.

Usually IC50 stands for the midpoint of a concentration-inhibition curve. As for `C1CCC(C(CC2CCCCN2)C2CCCCC2)CC1` (stereo not given) [PERHEXILINE], the IC50 in [1] was 11.3 µM.
Broadly, the IC90 is the point of the concentration-response curve where the effect stands at 90%. As to `Clc1cc2c(c3ncccc13)OCN(CCc1ccccc1)C2`, the INH in series [2] was found to be 2 µg/mL; in series [3] it was 4 µg/mL; in series [4], 4 µg/mL; in series [5], 4 µg/mL; in series [7], 4 µg/mL; in series [9], 4 µg/mL. The IC50 stood at 22.7 µM in [1], 2.14 µg/mL (≈ 6.59 µM) in [6], 1.98 µg/mL (≈ 6.1 µM) in series [8] and 2 µg/mL (≈ 6.16 µM) in series [11]. For the same compound, the IC90 in [6] is 3.88 µg/mL (≈ 11.9 µM); in series [8] it was 2.2 µg/mL (≈ 6.77 µM); in [11] it was 2.13 µg/mL (≈ 6.56 µM). Besides, the selectivity ratio in series [10] came to 10.6.
Turning to `C[C@@H](c1ncncc1F)[C@](O)(Cn1cncn1)c1ccc(F)cc1F` [VORICONAZOLE], the INH in [2] is 0.25 µg/mL; in series [3], 1 µg/mL; in series [4], 4 µg/mL; in series [5], 0.016 µg/mL; in series [7], above 4 µg/mL; in [9] it was 4 µg/mL. The IC50 worked out at 2.94 µg/mL (≈ 8.42 µM) in series [6], 0.2 µg/mL (≈ 0.573 µM) in series [8] and 0.01 µg/mL (≈ 0.0286 µM) in series [11]. Also, the results for the IC90 in series [6], in series [8] and in [11] were above 4 µg/mL, 0.76 µg/mL (≈ 2.18 µM) and 0.55 µg/mL (≈ 1.57 µM), respectively.
For the compound `NC1CCCc2ccc(C3=NSC(c4cc(Cl)c(F)c(Cl)c4)(C(F)(F)F)C3)cc21` (stereo not given), the INH in [2] is 4 µg/mL; in [3], 4 µg/mL; in [4], 4 µg/mL; in series [5], 2 µg/mL; in series [7], 4 µg/mL; in [9], 2 µg/mL. For the same compound, the IC50 in [1] amounted to 13.2 µM; in [6], 2.09 µg/mL (≈ 4.51 µM); in [8] it was 2.11 µg/mL (≈ 4.55 µM); in series [11] it was 1.43 µg/mL (≈ 3.09 µM). Moreover, the IC90 in [6] is 2.3 µg/mL (≈ 4.96 µM); in [8], 2.62 µg/mL (≈ 5.65 µM); in [11], 1.71 µg/mL (≈ 3.69 µM). The selectivity ratio in series [10] was 6.29.
Take `Fc1ccc2[nH]cc(-c3ccsc3Br)c2c1`: the INH is 64 µg/mL in series [2]; above 64 µg/mL in [3]; 32 µg/mL in series [4]; 16 µg/mL in series [5]; above 64 µg/mL in [7]; 16 µg/mL in series [9]. Moreover, the IC50 in series [1] is above 100 µM; in series [6] it was 29.3 µg/mL (≈ 98.9 µM); in series [8] it was 32.2 µg/mL (≈ 109 µM); in series [11], 9.85 µg/mL (≈ 33.3 µM). Moreover, the IC90 in [6] is above 64 µg/mL; in series [8], above 64 µg/mL; in series [11], 15.7 µg/mL (≈ 53 µM). Further, the selectivity ratio in [10] is above 3.41.
As for `CCCCCn1nc(-c2ccc(Cl)cc2)cnc1=O`, the INH in [2] was determined as 1 µg/mL; in series [3], 2 µg/mL; in [4] it was 2 µg/mL; in series [5], 1 µg/mL; in series [7] it was 4 µg/mL; in [9] it was 4 µg/mL. The IC50 is 2.07 µM in series [1], 1.8 µg/mL (≈ 6.48 µM) in series [6], 0.76 µg/mL (≈ 2.74 µM) in [8] and 0.72 µg/mL (≈ 2.59 µM) in series [11]. Besides, the IC90 in series [6] was determined as 3.64 µg/mL (≈ 13.1 µM); in series [8], 1.05 µg/mL (≈ 3.78 µM); in series [11] it was 1.59 µg/mL (≈ 5.72 µM). The selectivity ratio in [10] worked out at 1.5.
As for `C[C@@H]1[C@H](O)[C@@H](C)/C=C/C=C/C=C/C=C/C=C/C=C/C=C/[C@H](O[C@@H]2O[C@H](C)[C@@H](O)[C@H](N)[C@@H]2O)C[C@@H]2O[C@](O)(C[C@@H](O)C[C@@H](O)[C@H](O)CC[C@@H](O)C[C@@H](O)CC(=O)O[C@H]1C)C[C@H](O)[C@H]2C(=O)O` [AMPHOTERICIN B], the INH in [2] stood at 0.5 µg/mL; in series [3], 1 µg/mL; in series [4], 1 µg/mL; in series [5] it was 0.25 µg/mL; in series [7], 1 µg/mL; in series [9], 0.5 µg/mL. Further, the IC50 was determined as 0.54 µg/mL (≈ 0.584 µM) in [6], 0.49 µg/mL (≈ 0.53 µM) in [8] and 0.2 µg/mL (≈ 0.216 µM) in series [11]. In addition, the IC90 in series [6] amounted to 0.83 µg/mL (≈ 0.898 µM); in series [8], 0.54 µg/mL (≈ 0.584 µM); in [11], 0.39 µg/mL (≈ 0.422 µM).
With `COCc1ncnc(NC(C)CC#Cc2ccc(Oc3ccc(C(F)(F)F)cn3)cc2)c1OC` (stereo not given), the INH in series [2] is above 64 µg/mL; in series [3], above 64 µg/mL; in [4] it was 0.5 µg/mL; in series [5], below 0.125 µg/mL; in series [7], 8 µg/mL; in [9] it was 1 µg/mL. The IC50 was above 100 µM in [1] and 0.45 µg/mL (≈ 0.952 µM) in [6]. Besides, the concentration for an effect of 90% (IC90) in series [6] was 4.61 µg/mL (≈ 9.76 µM). The selectivity ratio in series [10] is above 222.
`Cc1cc(Nc2ccccc2C)n(-c2nc(=O)cc(C)[nH]2)n1`: the INH was determined as 2 µg/mL in series [2]; 4 µg/mL in series [3]; 2 µg/mL in series [4]; 1 µg/mL in series [5]; 8 µg/mL in series [7]; 4 µg/mL in series [9]. The IC50 in [1] is above 100 µM; in [6] it was 1.45 µg/mL (≈ 4.91 µM); in series [8] it was 1.42 µg/mL (≈ 4.81 µM); in series [11] it was 0.85 µg/mL (≈ 2.88 µM). Also, the IC90 in series [6] was found to be 6.05 µg/mL (≈ 20.5 µM); in [8] it was 2.38 µg/mL (≈ 8.06 µM); in [11], 1.93 µg/mL (≈ 6.53 µM). Also, the selectivity ratio in [10] is above 69.
